Nine compounds from ChEMBL document CHEMBL1201862, “PubChem BioAssay data set” (2004) can be followed below.

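How tested: cells in 96-well plates exposed to compound for 48 hours at five concentrations. At the GI50, growth is halved.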 Active and inactive are the calls of the source. Rule as the data show it: active = GI50 up to about 1.1 µM and inactive = higher. Non-standard residues stand in square brackets, D forms with d. Residues, ends and D or L forms follow the SMILES beside them. ξ: configuration not given here. *: point of attachment. ξNMeF = CNC(Cc1ccccc1)C(=O)O; NMeV = CN[C@H](C(=O)O)C(C)C; Boc = CC(C)(C)OC(=O)*; OBn = c1ccc(CO*)cc1

Common to all, as to assay: NCI tumour cell line growth inhibition, 48 h
Test [1] deals with HT-29.
Test [2] has as its system HOP-92.
Test [3] has as its system NCI-H226.
The subject of test [4] is DMS-114.
Test [5] deals with SK-MEL-5.
Test [6] relates to HCC 2998.
Test [7] relates to COLO 205.
Test [8] deals with TK-10.
For test [9], the system named is OVCAR-3.
The subject of test [10] is OVCAR-5.
Test [11] deals with SNB-19.
For test [12], the system named is SNB-75.
The test system of test [13] is SF-295.
Test [14] has as its system OVCAR-8.
The test system of test [15] is HL-60.
For test [16], the system named is SN12C.
The test system of test [17] is T47D.
Test [18] concerns PC-3.
The test system of test [19] is MDA-MB-231.
Test [20] has as its system MDA-MB-435.

With `CC(C)[C@@H](C(=O)N(C)[C@H](C(=O)N1CCC[C@H]1C(=O)OCc1ccccc1)C(C)C)N(C)C(=O)C(Cc1ccccc1)N(C)C(=O)[C@H](NC(=O)OC(C)(C)C)C(C)C` (some centres not stated) (Boc-[dV][ξNMeF][NMeV][NMeV]P-OBn), the GI50 in [1] was > 31.6 µM (inactive); in [2] it was 8.34 µM (inactive); in [3], > 100 µM (inactive); in [4] it was 20.6 µM (inactive); in test [5], 15.6 µM (inactive); in test [6], > 10 µM (inactive). Besides, the GI50 was > 82.6 µM (inactive) in test [7]; > 31.6 µM (inactive) in test [8]; > 34.5 µM (inactive) in test [9]; > 31.6 µM (inactive) in test [10]; > 31.6 µM (inactive) in test [11]; 14 µM (inactive) in test [12]. Also, the GI50 is 26.5 µM (inactive) in [13], > 31.6 µM (inactive) in test [14] and 19 µM (inactive) in test [15].

Regarding `CC(C)(C)NNC(=O)/C(=C/c1ccc(Oc2ccc(Cl)c(Cl)c2)cc1)NC(=O)c1ccccc1`, the GI50 in [1] is > 100 µM (inactive); in test [2], > 100 µM (inactive); in test [3], > 100 µM (inactive); in test [4], 18.5 µM (inactive); in test [5], > 100 µM (inactive); in test [16], > 100 µM (inactive). The GI50 in test [6] is > 100 µM (inactive); in [7], 16.2 µM (inactive); in test [8], > 100 µM (inactive); in test [9], > 100 µM (inactive); in test [10], > 100 µM (inactive); in [11], > 100 µM (inactive). Besides, the GI50 is > 100 µM (inactive) in test [12], > 100 µM (inactive) in [13], > 100 µM (inactive) in [14] and 40.5 µM (inactive) in test [15].

Consider `COC1CCC2C(NS(=O)(=O)c3ccc(C)cc3)CCCC2O1.Cc1ccc(S(=O)(=O)NC(C)(C)C=O)cc1` (configuration not stated), for which the GI50 is 11.4 µM (inactive) in test [1]; 3.66 µM (inactive) in test [2]; 10.3 µM (inactive) in [3]; 9.31 µM (inactive) in test [4]; 7.76 µM (inactive) in test [5]; 23.5 µM (inactive) in test [16]. Also, the GI50 in [6] is 33.5 µM (inactive); in test [8] it was 18.1 µM (inactive); in test [9], 13 µM (inactive); in test [10] it was > 34.5 µM (inactive); in [11], 16.1 µM (inactive); in test [12], 25 µM (inactive). Moreover, the GI50 was 8.51 µM (inactive) in test [13], 16.1 µM (inactive) in [14] and 8.18 µM (inactive) in [15].

For the compound `COC(=O)[C@]1(C)C(OC)=CC(=O)C2C1[C@H]1CCC[C@@H]21` (some centres not stated), the GI50 in test [1], in test [2], in [3], in [4], in test [5] and in test [16] was > 100 µM (inactive) in each case. For the same compound, the GI50 in [6], in test [7], in [8], in test [9], in test [10] and in [11] was > 100 µM (inactive) each time. Besides, the GI50 in [12], in test [13], in [14] and in test [15] was > 100 µM (inactive) throughout.

`CS(=O)(=O)OCCN(CCOS(C)(=O)=O)c1ccc(C=O)cc1`: the GI50 in test [1] was 3.96 µM (inactive); in [17] it was 5.92 µM (inactive); in test [18] it was 19.4 µM (inactive); in test [2], 12.5 µM (inactive); in [3], 1.84 µM (inactive); in test [4] it was 8.05 µM (inactive). Besides, the GI50 in test [5] was 6.27 µM (inactive); in [16] it was 3.68 µM (inactive); in test [6] it was 2.17 µM (inactive); in [7], 1.81 µM (inactive); in [8], 2.94 µM (inactive); in [19] it was 21.4 µM (inactive). Further, the GI50 was 5.12 µM (inactive) in test [9]; 10.3 µM (inactive) in test [20]; 3.5 µM (inactive) in test [10]; 4.22 µM (inactive) in test [11]; 1.87 µM (inactive) in test [12]; 0.774 µM (active) in test [13]. Besides, the GI50 was 7.35 µM (inactive) in [14] and 2.07 µM (inactive) in test [15].

Regarding `O=C(CC(=O)c1ccccc1NC1=Cc2ccccc2C(=O)C1=O)C(=O)NC1=C(Cl)C(=O)c2ccccc2C1=O`, the GI50 in test [1] was 5.26 µM (inactive); in test [17] it was 10.9 µM (inactive); in [18], 2.23 µM (inactive); in [2], 4.51 µM (inactive); in test [3], 7.52 µM (inactive); in [4] it was 1.68 µM (inactive). Moreover, the GI50 was 0.752 µM (active) in [5]; 1.8 µM (inactive) in [16]; 9.84 µM (inactive) in test [6]; 14.8 µM (inactive) in test [7]; 22.3 µM (inactive) in [8]; 2.42 µM (inactive) in [19]. For the same compound, the GI50 in [9] was 1.51 µM (inactive); in test [20], 1.85 µM (inactive); in [10], 5.98 µM (inactive); in test [11], 5.56 µM (inactive); in test [12] it was 1.69 µM (inactive); in [13] it was 3.87 µM (inactive). Also, the GI50 is 3.12 µM (inactive) in [14] and 0.605 µM (active) in test [15].

Turning to `CC1(C)C2=CCCC(=O)[C@@]2(C)CC[C@@H]1O`, the GI50 in [1], in [2], in test [3], in [4], in test [5] and in [16] was > 100 µM (inactive) each time. Further, the GI50 in test [6], in test [7], in test [8], in test [9], in [10] and in [11] was > 100 µM (inactive) throughout. Further, the GI50 in test [12], in test [13], in test [14] and in [15] was > 100 µM (inactive) in each case.

Consider `CCOC(=O)C(=Cc1ccc(Oc2ccccc2)cc1)C(=O)OCC`, for which the GI50 in test [1] was 3.18 µM (inactive); in test [17] it was 5.85 µM (inactive); in test [18], 2.16 µM (inactive); in test [2], 4.03 µM (inactive); in test [3], 3.17 µM (inactive); in [4] it was 3.07 µM (inactive). Further, the GI50 in test [5] is 1.98 µM (inactive); in [16], 2.27 µM (inactive); in test [6], 10.6 µM (inactive); in test [7], 4.06 µM (inactive); in test [8] it was 7.74 µM (inactive); in [9], 6.38 µM (inactive). Also, the GI50 in test [20] was 2.58 µM (inactive); in test [10], 4.44 µM (inactive); in [11], 5.73 µM (inactive); in [12], 2.66 µM (inactive); in [13], 5.13 µM (inactive); in [14], 2.19 µM (inactive). Further, the GI50 in [15] was 1.73 µM (inactive).

`CC(=O)OCC1OC(n2c(-c3ccc(C)cc3)cc(-c3ccccc3)c(C#N)c2=O)C(OC(C)=O)C(OC(C)=O)C1OC(C)=O` (configuration not stated): the GI50 in test [1], in test [2], in test [3], in test [4], in test [5] and in [16] was > 100 µM (inactive) in each case. For the same compound, the GI50 in test [6], in [7], in test [8], in test [9], in [10] and in [11] was > 100 µM (inactive) in each case. The GI50 is 71.6 µM (inactive) in [12], > 100 µM (inactive) in test [14] and 48.9 µM (inactive) in [15].
